Measurements: patent publication US20240115558A1
Entries after “also recorded” stand apart in the source; their conditions may differ. Where a name gives a salt, the structure may show the parent alone.

Experiments:
[1] = test system: NPC1 protein in GM18453 (I1061T/I1061T); experiment: EndoH-resistant NPC1 by western blot, GM18453 fibroblasts; assay type: cell-based, human; conditions: 400 μM, 5 days
Method: (§1) PNGase cleaves all glycans from the NPC1 protein regardless of maturation status and is included as a control. EndoH sensitive, immature NPC1 is seen in untreated GM18453 extracts. (B) Quantification of the EndoH resistant NPC1, shown as arimoclomol treated relative to untreated cells. Cells were treated for 5 days with 400 μM arimoclomol. Average of three independent experiments, mean±SD. Pairwise t-test (p: *<0.05). The data are further described in Example 2. […]
(§2) Fibroblasts were seeded one day prior to treatment (day −1) with either 400 μM arimoclomol or PBS (control). […] Protein concentration for each sample was quantified with a BCA assay kit. […]
(§3) Proteins were resolved by SDS-PAGE and detected with Western blot (NPC1&tubulin).
(§4) For the quantification of mature and immature forms of NPC1 as shown in FIGS. 5A-B, membranes were imaged and protein bands for the immature (EndoH sensitive) and mature (EndoH resistant) forms of NPC1 (180-250 kDa) and tubulin (50 kDa) were quantified using ImageJ software. […] The fold change of EndoH-resistant NPC1 protein after arimoclomol treatment relative to PBS-treated (untreated) control within each cell line was quantified. […]

[2] = test system: NPC1 protein; experiment: Total NPC1 protein by western blot in NPC patient fibroblast cell lines; assay type: cell-based, human; conditions: patient fibroblasts with the most common NPC1 mutations; 50-400 μM, five days
Method: The data are further described in Example 2.
(§5) Fibroblasts were seeded one day prior to treatment (day −1) with either 400 μM arimoclomol or PBS (control). Cells were treated continuously with arimoclomol from day 0 to day 5, with a media change on day 3, and harvested on day 5. The cells thus experienced 5 days of continued arimoclomol treatment. Cells were subsequently lysed with RIPA buffer containing protease and phosphatase inhibitors. Protein concentration for each sample was quantified with a BCA assay kit.

[3] = evidenced by presence in cerebrospinal fluid of treated ALS patients; cited from earlier work
[4] = test system: patients with Niemann-Pick disease, type C (NPC); experiment: Phase 2/3 NPC trial: safety evaluation
Method: Study Procedures: the screening visit (visit 1) included a baseline assessment, randomization assignment, and pharmacokinetic (PK) assessment. The first dose of arimoclomol or placebo was given within 1 week of randomization. Safety assessments were performed at visit 2 (7-14 days after start of treatment) and then every 3 months during the blinded period (visits 3-6).

[5] = test system: HSPA1A, the gene encoding HSP70; experiment: HSPA1A expression in NPC patient fibroblasts treated with arimoclomol; assay type: cell-based, human; conditions: NPC patient fibroblasts I1061T/I1061T; various concentrations; days 2 and 5
Method: The expression level of HSP1A1 is quantified on days 2 and day 5. The data are further described in Example 2.
as §5

[6] = test system: patients with Niemann-Pick disease, type C (NPC); experiment: 12-month randomized, double-blind, placebo-controlled phase 2/3 trial of arimoclomol in NPC: clinical efficacy endpoints; assay type: in vivo, human; parameters: key to Change from baseline in 5-domain NPCCSS score, treatment difference / Change in 5-domain NPCCSS score from baseline at 12 months, mean change / Change in 5-domain NPCCSS score, mean change / Change from baseline in 5-domain NPCCSS score, LSMean: 5-domain NPCCSS points (total 0–25, higher = more severe impairment); conditions: for Change from baseline in 5-domain NPCCSS score, LSMean / Change from baseline in 5-domain NPCCSS score, treatment difference: patients with ER genotype; for Change in 5-domain NPCCSS score, mean change: 12 months
Method: Patients enrolled in the trial were stratified by use of miglustat at baseline. Patients in both strata were randomized 2:1 to receive arimoclomol or placebo.
Routine clinical care was maintained throughout the trial (including administration of miglustat). Each participant was randomized to receive arimoclomol or placebo three times daily. Arimoclomol (calculated as free base) was administered orally or by feeding tube at 93-372 mg/day based on the patient's body weight up to the estimated equivalence of 372 mg/day for adults (body weight>55 kg) or of 124 mg three times a day.
During the 12-month treatment phase, efficacy assessments for the primary endpoint, the 5-domain NPCCSS score, and for the non-disease specific Clinical Global Impression-Improvement scale (CGI-I) scores were performed at baseline and after 3, 6, 9, and 12 months of treatment; all other efficacy and biomarker assessments were performed at baseline and after 6 and 12 months of treatment.
Primary endpoint: The primary endpoint was change from baseline in NPC severity at 12 months as assessed by the 5-domain NPCCSS score, an abbreviated assessment tool originating from the 17 domain NPCCSS score developed by Yanjanin et al., as described herein. The fully validated 5-domain NPCCSS score comprises the domains determined to be most clinically relevant to patients, caregivers, and clinicians: ambulation, cognition, fine motor skills, speech, and swallowing. The total aggregated 5-domain NPCCSS score ranges from 0 to 25, with a higher score indicating more severe clinical impairment.
Subgroup analyses of primary endpoint: NPC is a heterogeneous disease, and patients aged 2 to 18 years present with a large spectrum of disease presentations. The group of children<4 years old includes patients with mild manifestations and patients with aggressive, early fatal disease. As this group is particularly heterogeneous, a subgroup of patients ≥4 years of age was predefined with the population of study participants.
In the EU, miglustat is indicated for the treatment of progressive neurological manifestations in patients with NPC. However, not all patients are candidates for miglustat treatment, and it is recommended that the benefit of treatment should be evaluated on a regular basis (e.g., every six months). An analysis of the subpopulation of patients receiving miglustat was prespecified to elucidate the effect of arimoclomol in patients on background miglustat treatment. Overall, the subgroups of patients ≥4 years of age, and patients on miglustat treatment, were expected to be more homogeneous with respect to baseline demographics and disease characteristics and therefore more suitable for comparison.
In the first post hoc analysis, subjects with double functional null mutations in NPC1 (NPC1 genotype of Functional Null/Functional Null) were excluded.
In the second post hoc analysis, only subjects with annual severity increment score (ASIS) 0.5-2.0 were included.
In an additional post hoc analysis, only subjects with at least one ER type mutation were included.

[7] = test system: NPC1 protein in GM18420 (P1007A/IVS23+4delA); experiment: EndoH-resistant NPC1 by western blot, GM18420 fibroblasts; assay type: cell-based, human; conditions: 400 μM, 5 days
Method: as §1, §2, §3, §4

## [O-][n+]1cccc(/C(Cl)=N/OC[C@H](O)CN2CCCCC2)c1 [Arimoclomol, (+)-(R)-N-[2-hydroxy-3-(1-piperidinyl)-propoxy]-pyridine-1-oxide-3-carboximidoyl chloride citrate]
[1]
  Amount of EndoH-resistant (correctly processed) NPC1 relative to PBS-treated cells: increased
[1]; listed as arimoclomol
  Amount of EndoH-resistant (correctly processed) NPC1 relative to PBS-treated cells: increased; also recorded: clear increase of correctly matured NPC1 protein
[2]
  Amount of total NPC1 protein relative to PBS-treated control: increased
[3]
  Blood-brain barrier passage: crosses the blood-brain barrier
[4]; 12-month trial
  Tolerability: well tolerated
[4]; arimoclomol group
  Patients with increase in serum creatinine level over 1.5 times their baseline values: Six
  Patients with serum creatinine levels over twice baseline values: two
[4]; arimoclomol group, 30/34
  Patients with TEAEs: 88.2%
[4]; in vivo
  Changes in vital signs, electrocardiograms, or other laboratory values during the trial: no significant changes
  TEAEs occurring more frequently with arimoclomol versus placebo: Upper respiratory tract infection and decreased weight
[4]; three patients, four TEAEs (urticaria, angioedema, increased blood creatinine)
  Patients with TEAEs that led to trial drug discontinuation: 8.8%
[5]
  Expression of HSPA1A relative to PBS-treated control: time- and dose-dependent increase
[6]; human, in vivo
  SARA score change from baseline to 12 months, LS mean: 1.06
  SARA score change from baseline to 12 months, arimoclomol vs placebo: difference: 0.28
[6]; overall population, arimoclomol 93-372 mg/day (free base) t.i.d.
  Change in 5-domain NPCCSS score from baseline at 12 months, mean change: 0.80
[6]; month 3
  Change from baseline in 5-domain NPCCSS score, LSMean: −0.29
  Change from baseline in 5-domain NPCCSS score, treatment difference: −1.60
[6]; month 6
  Change from baseline in 5-domain NPCCSS score, LSMean: 0.61
  Change from baseline in 5-domain NPCCSS score, treatment difference: −2.19
[6]; month 9
  Change from baseline in 5-domain NPCCSS score, LSMean: 0.86
  Change from baseline in 5-domain NPCCSS score, treatment difference: −3.44
[6]; month 12
  Change from baseline in 5-domain NPCCSS score, LSMean: 0.52
  Change from baseline in 5-domain NPCCSS score, treatment difference: −4.79
[6]; post hoc: ASIS within 0.5 and 2
  Change in 5-domain NPCCSS score, mean change: 0.19
[6]; post hoc: excluding individuals with double functional null mutations
  Change in 5-domain NPCCSS score, mean change: 0.47
[7]
  Amount of EndoH-resistant (correctly processed) NPC1 relative to PBS-treated cells: increased
